Test results published in US10104890B2, “Compositions and methods for controlling pesticide resistant pests” (Rothamsted Research Limited, priority 2011, dated 2018).

System: Myzus persicae clone 5191A
Type: in vivo
Settings: for LC50 (lethal concentration to kill 50% of the population): LC50 of imidacloprid, alone or after 5 h pre-treatment with 0.25 μL of 1 g L−1 synergist, apterous aphids, topical, scored 72 h after treatment, probit analysis; for SF = synergism factor (LC50 unsynergised/LC50 synergised): with imidacloprid, 1 g L−1 synergist, 5 h pre-treatment, clone 5191A
Procedure: Aphids for bioassays were reared on Chinese cabbage leaves (Brassica rapa L. var. Pekinensis c.v Wong Bok) (Brassicaceae) in small plastic box-cages (Blackman boxes) (Stewart Plastics Ltd, Surrey, UK) maintained at 18±2° C. with a 16 h light: 8 h dark photoperiod. Each box contained two adult aphids placed on a leaf and left for 5 days to produce nymphs. After the 5th day the adults were removed and their esterase levels determined to ensure that no contamination or loss of esterase expression (reversion) among the different clones had occurred during the rearing process. After approximately 13-15 days adults were used for bioassays.
Clone 5191A was collected from tobacco in Greece in 2007, and established from a single parthenogenetic female.
Apterous aphids were transferred from Blackman boxes (section 2.1.1) to the abaxial surface of Chinese cabbage leaf discs (approximately 10 adults per leaf disc) held on 1% agar in plastic containers (4 cm in diameter, A.W. Gregory & Co Limited, Kent, UK). The upper edge of each container was coated with Fluon® (Whitford Plastics, Cheshire, UK) to prevent aphid escape from the leaf surface. Netted lids were added to ensure apterous aphids could not escape. After allowing 30 min for the aphids to settle, each was dosed with 0.25 μL of 1 g L^−1 synergist dissolved in acetone or acetone only using a Burkard microapplicator (Burkhard Scientific, Middx, UK). Synergist concentrations chosen conferred no significant mortality compared to the acetone control treatment in preliminary bioassays. Five hours later, aphids were further treated with 0.25 μL imidacloprid in acetone at a range of concentrations, at least 3 replicates per concentration per bioassay. Controls were treated with 0.25 μL of acetone or 1 g L^−1 synergist in acetone and after 5 h with a further 0.25 μL of acetone.
Treated aphids were kept at 18±2° C. and 16 h light: 8 h dark photoperiod and scored 72 h after treatment. Aphids incapable of co-ordinated movement (after gentle touching with a paint brush if necessary) were scored as dead. All bioassays were performed a minimum of three times.
Pooled raw data from at least three separate bioassays were analysed by probit analysis using the statistical programme PC Polo Plus (LeOra, Software, Berkeley, USA). Polo Plus programme calculated the concentrations required to kill 50% of the population (LC50), 95% confidence limits (CL95%), slopes with standard errors (SE), chi-square (χ2) and degrees of freedom (df). Natural response was also estimated when control mortality occurred.

`CCCCOCCOCCOCc1cc2c(cc1CCC)CCC2` [EN 14-5] was tested, and the “LC50 (lethal concentration to kill 50% of the population)” value was 41.5 ppm and the “SF = synergism factor (LC50 unsynergised/LC50 synergised)” value (from here on “SF = synergism factor”) was 2.17.

For `CCCCOCCOCCOCc1cc2c(cc1CCC)CCO2` [EN 16-5], the “LC50 (lethal concentration to kill 50% of the population)” value was 12.2 ppm and the “SF = synergism factor” value was 7.41.

With `O=[N+]([O-])NC1=NCCN1Cc1ccc(Cl)nc1` [imidacloprid] the “LC50 (lethal concentration to kill 50% of the population)” value was 90.4 ppm.

With `CC#CCO[C@H](C)c1ccc(OC)c(OC)c1` [EN 25-10] the “LC50 (lethal concentration to kill 50% of the population)” value was 4.88 ppm and the “SF = synergism factor” value was 18.5.

For `CCCCOCCOCCOCc1cc2c(cc1CCC)OCO2` [PBO, piperonyl butoxide], the “LC50 (lethal concentration to kill 50% of the population)” value was 6.22 ppm and the “SF = synergism factor” value was 14.5.

For `CC#CCOc1cc2c(cc1CCC)OCO2` [EN 164], the “LC50 (lethal concentration to kill 50% of the population)” value was 1.25 ppm and the “SF = synergism factor” value was 72.4.

`CCCCCCCCCCCCc1ccc2c(c1)OCO2` [EN 129] was tested, and the “LC50 (lethal concentration to kill 50% of the population)” value was 28.4 ppm and the “SF = synergism factor” value was 3.18.

For `CC#COCc1ccc2c(c1)CCO2` [EN 16-18], the “LC50 (lethal concentration to kill 50% of the population)” value was 18.4 ppm and the “SF = synergism factor” value was 4.91.

`CC#CCOc1ccc2c(c1)OCO2` [EN 163] was tested, and the “LC50 (lethal concentration to kill 50% of the population)” value was 2.98 ppm and the “SF = synergism factor” value was 30.3.

In the case of `CC#CCOCc1cc2c(cc1CCC)OCO2` [EN 126], the “LC50 (lethal concentration to kill 50% of the population)” value is reported as 0.31 ppm and the “SF = synergism factor” value is reported as 292.

In the case of `CC#CCOc1cc2c(cc1CCC)CCO2` [EN 16-17], the “LC50 (lethal concentration to kill 50% of the population)” value is reported as 7.11 ppm and the “SF = synergism factor” value is reported as 12.7.
